{
  "source": "patent US12472272B2",
  "about": "“Radiolabelled compounds for diagnosis or treatment of prostate-specific membrane antigen- expressing cancer” (PROVINCIAL HEALTH SERVICES AUTHORITY, priority 2019, dated 2025)",
  "origin": "cited, not measured here",
  "key": {"tumor": {"test_system": "tumor", "settings": "Kuo et al. 2018, cited from earlier work"}, "[1]": {"test_system": "metastatic prostate cancer", "settings": "cited from earlier work"}},
  "data": [
    {"smiles": "O=C([O-])CN1CCN(CC(=O)[O-])CCN(CC(=O)NCC2CCC(C(=O)N[C@@H](Cc3ccc4ccccc4c3)C(=O)NCCCC[C@H](NC(=O)N[C@@H](CCC(=O)O)C(=O)O)C(=O)O)CC2)CCN(CC(=O)[O-])CC1.[177Lu+3]", "note": "(stereo partly shown) [^177Lu-PSMA-617]", "values": [
      {"measurement": "tumor uptake", "setting": "tumor; 120 h post-injection", "result": "~8", "unit": "% ID/g"},
      {"measurement": "peaked tumor uptake", "setting": "tumor; reported previously", "result": "~15", "unit": "% ID/g"},
      {"measurement": "complete response rate", "setting": "[1]; human, in vivo", "result": "< 7", "unit": "%"},
      {"measurement": "patients with progressive disease after treatment", "setting": "[1]; human, in vivo", "result": "up to 33%"},
      {"measurement": "side effects", "setting": "[1]; human, in vivo", "result": "without severe side effects"},
      {"measurement": "patients having >50% reduction in PSA levels", "setting": "[1]; metastatic prostate cancer", "result": "32-60%"},
      {"measurement": "objective response", "setting": "[1]; phase 2 Australian study, patients with measurable nodal or visceral disease", "result": 82, "unit": "%"}
    ]}
  ]
}
